± gives the uncertainty stated by the source.
Assay: xn = mol fraction of the nth substance listed
Details: 101 kPa

COCC(C)O (stereo not given) + CS(C)=O showed a viscosity (298.15 K, x1 = 0.0436) of 1.79 ± 0.17 mPa·s, a viscosity (298.15 K, x1 = 0.0879) of 1.79 ± 0.17 mPa·s and a viscosity (298.15 K, x1 = 0.1327) of 1.78 ± 0.17 mPa·s. It also gave a viscosity (298.15 K, x1 = 0.1781) of 1.78 ± 0.17 mPa·s, a viscosity (298.15 K, x1 = 0.2242) of 1.78 ± 0.17 mPa·s and a viscosity (298.15 K, x1 = 0.2709) of 1.77 ± 0.16 mPa·s. For the same compound, the viscosity (298.15 K, x1 = 0.3183) was 1.77 ± 0.16 mPa·s, the viscosity (298.15 K, x1 = 0.3663) was 1.77 ± 0.16 mPa·s and the viscosity (298.15 K, x1 = 0.415) was 1.76 ± 0.16 mPa·s. It also gave a viscosity (298.15 K, x1 = 0.4644) of 1.75 ± 0.16 mPa·s, a viscosity (298.15 K, x1 = 0.5145) of 1.75 ± 0.16 mPa·s and a viscosity (298.15 K, x1 = 0.5653) of 1.75 ± 0.16 mPa·s. The viscosity (298.15 K, x1 = 0.6169) was 1.73 ± 0.16 mPa·s, the viscosity (298.15 K, x1 = 0.6692) was 1.72 ± 0.16 mPa·s and the viscosity (298.15 K, x1 = 0.7224) was 1.7 ± 0.16 mPa·s. The viscosity (298.15 K, x1 = 0.7762) was 1.67 ± 0.16 mPa·s, the viscosity (298.15 K, x1 = 0.8864) was 1.62 ± 0.15 mPa·s and the viscosity (303.15 K, x1 = 0.0436) was 1.54 ± 0.15 mPa·s. It also gave a viscosity (303.15 K, x1 = 0.0879) of 1.54 ± 0.15 mPa·s, a viscosity (303.15 K, x1 = 0.1327) of 1.53 ± 0.14 mPa·s and a viscosity (303.15 K, x1 = 0.1781) of 1.53 ± 0.14 mPa·s. The viscosity (303.15 K, x1 = 0.2242) was 1.53 ± 0.14 mPa·s, the viscosity (303.15 K, x1 = 0.2709) was 1.53 ± 0.14 mPa·s and the viscosity (303.15 K, x1 = 0.3183) was 1.52 ± 0.14 mPa·s. For the same compound, the viscosity (303.15 K, x1 = 0.3663) was 1.52 ± 0.14 mPa·s, the viscosity (303.15 K, x1 = 0.415) was 1.52 ± 0.14 mPa·s and the viscosity (303.15 K, x1 = 0.4644) was 1.51 ± 0.14 mPa·s. For the same compound, the viscosity (303.15 K, x1 = 0.5145) was 1.51 ± 0.14 mPa·s, the viscosity (303.15 K, x1 = 0.5653) was 1.5 ± 0.14 mPa·s and the viscosity (303.15 K, x1 = 0.6169) was 1.49 ± 0.14 mPa·s. The viscosity (303.15 K, x1 = 0.6692) was 1.47 ± 0.14 mPa·s, the viscosity (303.15 K, x1 = 0.7224) was 1.45 ± 0.14 mPa·s and the viscosity (303.15 K, x1 = 0.7762) was 1.42 ± 0.14 mPa·s. The viscosity (303.15 K, x1 = 0.8864) was 1.36 ± 0.13 mPa·s, the viscosity (308.15 K, x1 = 0.0436) was 1.47 ± 0.14 mPa·s and the viscosity (308.15 K, x1 = 0.0879) was 1.47 ± 0.14 mPa·s. For the same compound, the viscosity (308.15 K, x1 = 0.1327) was 1.46 ± 0.14 mPa·s, the viscosity (308.15 K, x1 = 0.1781) was 1.46 ± 0.14 mPa·s and the viscosity (308.15 K, x1 = 0.2242) was 1.46 ± 0.14 mPa·s. For the same compound, the viscosity (308.15 K, x1 = 0.2709) was 1.45 ± 0.14 mPa·s, the viscosity (308.15 K, x1 = 0.3183) was 1.45 ± 0.14 mPa·s and the viscosity (308.15 K, x1 = 0.3663) was 1.45 ± 0.14 mPa·s. It also gave a viscosity (308.15 K, x1 = 0.415) of 1.44 ± 0.14 mPa·s, a viscosity (308.15 K, x1 = 0.4644) of 1.43 ± 0.14 mPa·s and a viscosity (308.15 K, x1 = 0.5145) of 1.43 ± 0.14 mPa·s. The viscosity (308.15 K, x1 = 0.5653) was 1.42 ± 0.14 mPa·s, the viscosity (308.15 K, x1 = 0.6169) was 1.41 ± 0.13 mPa·s and the viscosity (308.15 K, x1 = 0.6692) was 1.39 ± 0.13 mPa·s. For the same compound, the viscosity (308.15 K, x1 = 0.7224) was 1.37 ± 0.13 mPa·s, the viscosity (308.15 K, x1 = 0.7762) was 1.34 ± 0.13 mPa·s and the viscosity (308.15 K, x1 = 0.8864) was 1.28 ± 0.12 mPa·s. The viscosity (313.15 K, x1 = 0.0436) was 1.39 ± 0.13 mPa·s, the viscosity (313.15 K, x1 = 0.0879) was 1.38 ± 0.13 mPa·s and the viscosity (313.15 K, x1 = 0.1327) was 1.38 ± 0.13 mPa·s. The viscosity (313.15 K, x1 = 0.1781) was 1.37 ± 0.13 mPa·s, the viscosity (313.15 K, x1 = 0.2242) was 1.37 ± 0.13 mPa·s and the viscosity (313.15 K, x1 = 0.2709) was 1.36 ± 0.13 mPa·s. For the same compound, the viscosity (313.15 K, x1 = 0.3183) was 1.36 ± 0.13 mPa·s, the viscosity (313.15 K, x1 = 0.3663) was 1.35 ± 0.13 mPa·s and the viscosity (313.15 K, x1 = 0.415) was 1.35 ± 0.13 mPa·s. It also gave a viscosity (313.15 K, x1 = 0.4644) of 1.34 ± 0.13 mPa·s, a viscosity (313.15 K, x1 = 0.5145) of 1.34 ± 0.13 mPa·s and a viscosity (313.15 K, x1 = 0.5653) of 1.33 ± 0.13 mPa·s. The viscosity (313.15 K, x1 = 0.6169) was 1.31 ± 0.13 mPa·s, the viscosity (313.15 K, x1 = 0.6692) was 1.29 ± 0.12 mPa·s and the viscosity (313.15 K, x1 = 0.7224) was 1.27 ± 0.12 mPa·s. For the same compound, the viscosity (313.15 K, x1 = 0.7762) was 1.24 ± 0.12 mPa·s, the viscosity (313.15 K, x1 = 0.8864) was 1.18 ± 0.11 mPa·s and the viscosity (318.15 K, x1 = 0.0436) was 1.31 ± 0.13 mPa·s. For the same compound, the viscosity (318.15 K, x1 = 0.0879) was 1.3 ± 0.12 mPa·s, the viscosity (318.15 K, x1 = 0.1327) was 1.3 ± 0.12 mPa·s and the viscosity (318.15 K, x1 = 0.1781) was 1.29 ± 0.12 mPa·s. It also gave a viscosity (318.15 K, x1 = 0.2242) of 1.29 ± 0.12 mPa·s, a viscosity (318.15 K, x1 = 0.2709) of 1.29 ± 0.12 mPa·s and a viscosity (318.15 K, x1 = 0.3183) of 1.28 ± 0.12 mPa·s. It also gave a viscosity (318.15 K, x1 = 0.3663) of 1.28 ± 0.12 mPa·s, a viscosity (318.15 K, x1 = 0.415) of 1.28 ± 0.12 mPa·s and a viscosity (318.15 K, x1 = 0.4644) of 1.27 ± 0.12 mPa·s. The viscosity (318.15 K, x1 = 0.5145) was 1.26 ± 0.12 mPa·s, the viscosity (318.15 K, x1 = 0.5653) was 1.25 ± 0.12 mPa·s and the viscosity (318.15 K, x1 = 0.6169) was 1.24 ± 0.12 mPa·s. It also gave a viscosity (318.15 K, x1 = 0.6692) of 1.22 ± 0.12 mPa·s, a viscosity (318.15 K, x1 = 0.7224) of 1.2 ± 0.12 mPa·s and a viscosity (318.15 K, x1 = 0.7762) of 1.17 ± 0.11 mPa·s. It also gave a viscosity (318.15 K, x1 = 0.8864) of 1.11 ± 0.11 mPa·s.
